Test results from patent US6057340A, “Oxazole derivatives as serotonin-1A receptor agonists” (American Home Products Corporation, priority 1999, dated 2000).

Biological target: T1, human 5HT1A receptor (Homo sapiens, UniProt P08908)
T1 construct: expressed in transfected cells
T1 sequence (P08908 1-422): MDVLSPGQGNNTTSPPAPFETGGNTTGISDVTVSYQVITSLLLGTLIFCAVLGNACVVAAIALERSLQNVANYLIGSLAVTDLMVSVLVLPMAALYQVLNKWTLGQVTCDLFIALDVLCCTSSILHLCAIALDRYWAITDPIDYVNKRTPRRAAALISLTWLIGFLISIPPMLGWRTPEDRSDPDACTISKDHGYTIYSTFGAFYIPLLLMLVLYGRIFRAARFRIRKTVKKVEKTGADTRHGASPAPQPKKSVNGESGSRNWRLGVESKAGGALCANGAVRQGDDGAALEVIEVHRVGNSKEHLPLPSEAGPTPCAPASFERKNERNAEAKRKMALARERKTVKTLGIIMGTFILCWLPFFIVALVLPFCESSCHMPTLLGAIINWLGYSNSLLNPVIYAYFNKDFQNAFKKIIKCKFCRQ
Experiment: displacement of [^3 H] 8-OH-DPAT binding in CHO cells stably transfected with human 5HT1A receptor
Settings: final ligand concentration 1.5 nM, 30 minute incubation at room temperature
Method: The compounds of this invention are 5-HT1A agonists. Affinity for the serotonin 5-HT1A receptor was established in a standard pharmacological test procedure which measures the compound's ability to displace [^3 H] 8-OH-DPAT binding in CHO cells stably transfected with human 5HT1A receptor. Stably transfected CHO cells are grown in DMEM containing 10% heat inactivated FBS and non-essential amino acids. Cells are scraped off the plate, transferred to centrifuge tubes, and washed twice by centrifugation (2000 rpm for 10 min., 4° C.) in buffer (50 mM Tris pH 7.5). The resulting pellets are aliquoted and placed at -80° C. On the day of assay, the cells are thawed on ice and resuspended in buffer. The binding assay is performed in a 96 well microtiter plate in a total volume of 250 μL. Non-specific binding is determined in the presence of […], final ligand concentration is 1.5 nM. Following a 30 minute incubation at room temperature, the reaction is terminated by the addition of ice cold buffer and rapid filtration through a GF/B filter presoaked for 30 minutes in 0.5% PEI. Compounds are initially tested in a single point assay to determine percent inhibition at […], and Ki values are determined for the active compounds.

SMILES: COc1ccccc1C1CCN(Cc2oc(C3CCCCC3)nc2Cc2ccccc2)CC1 [Example 9, 1-(4-Benzyl-2-cyclohexyl-oxazol-5-ylmethyl)-4-(2-methoxy-phenyl)-piperidine]
- Ki: 4.4 nM
